Reference: ChEMBL document CHEMBL1201862, “PubChem BioAssay data set” (2004)
The source made the active and inactive calls.

Legend:
cells [1] = experiment: cells
Leucine aminopeptidase = target: T1, Leucine aminopeptidase (Plasmodium falciparum 3D7, UniProt Q8IL11); experiment: P. falciparum M17LAP inhibitors, primary screen, biochemical, fluorogenic H-Leu-NHMec substrate, 1536-well (AID 1619); assay type: functional
T1 sequence (Q8IL11 whole entry): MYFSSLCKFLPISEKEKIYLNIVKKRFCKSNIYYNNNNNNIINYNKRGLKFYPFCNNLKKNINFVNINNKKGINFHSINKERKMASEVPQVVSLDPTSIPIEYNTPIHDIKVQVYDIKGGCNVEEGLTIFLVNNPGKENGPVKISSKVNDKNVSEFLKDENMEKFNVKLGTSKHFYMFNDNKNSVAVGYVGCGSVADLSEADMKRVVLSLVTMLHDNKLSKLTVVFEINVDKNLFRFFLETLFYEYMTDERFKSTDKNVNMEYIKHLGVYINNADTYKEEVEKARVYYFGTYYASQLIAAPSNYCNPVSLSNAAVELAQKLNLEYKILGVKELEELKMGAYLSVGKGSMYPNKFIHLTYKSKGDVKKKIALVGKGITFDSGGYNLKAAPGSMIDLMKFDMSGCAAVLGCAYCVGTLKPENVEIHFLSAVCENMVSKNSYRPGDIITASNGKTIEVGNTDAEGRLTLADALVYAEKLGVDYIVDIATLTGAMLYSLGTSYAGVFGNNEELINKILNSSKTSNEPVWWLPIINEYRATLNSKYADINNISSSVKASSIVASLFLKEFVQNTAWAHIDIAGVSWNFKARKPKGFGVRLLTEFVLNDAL

Aspartyl aminopeptidase = target: T2, Aspartyl aminopeptidase (Plasmodium falciparum 3D7, UniProt Q8I2J3); experiment: Counterscreen for inhibitors of M1 and M17 aminopeptidases: QFRET-based biochemical high throughput dose response assay for inhibitors of the Plasmodium falciparum M18 Aspartyl Aminopeptidase (PFM18AAP). [Related PubChem assays: 1619 (Screening assay (M17LAP inhibitors).), 1445 (Screening assay (M1AAP inhibitors).)]
T2 sequence (Q8I2J3 whole entry): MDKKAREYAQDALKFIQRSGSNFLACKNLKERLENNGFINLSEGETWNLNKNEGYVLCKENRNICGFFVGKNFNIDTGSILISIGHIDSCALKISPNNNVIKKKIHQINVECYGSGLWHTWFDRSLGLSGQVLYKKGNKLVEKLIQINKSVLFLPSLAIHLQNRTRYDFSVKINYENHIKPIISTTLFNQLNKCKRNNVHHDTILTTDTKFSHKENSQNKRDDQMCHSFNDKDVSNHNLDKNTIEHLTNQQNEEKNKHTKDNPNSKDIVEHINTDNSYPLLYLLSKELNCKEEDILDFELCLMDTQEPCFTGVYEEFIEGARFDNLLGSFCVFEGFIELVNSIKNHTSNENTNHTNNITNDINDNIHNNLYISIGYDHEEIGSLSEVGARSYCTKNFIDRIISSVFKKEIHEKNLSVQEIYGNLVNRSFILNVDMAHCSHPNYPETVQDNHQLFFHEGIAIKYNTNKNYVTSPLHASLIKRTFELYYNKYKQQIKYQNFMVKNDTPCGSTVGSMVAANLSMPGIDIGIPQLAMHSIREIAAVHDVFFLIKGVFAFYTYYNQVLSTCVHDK

Procathepsin L = Procathepsin L (Homo sapiens, UniProt P07711); experiment: CTSL1 protease inhibition – biochemical, QFRET, 1536-well, counter-screen for M1/M17 aminopeptidase inhibitor project, dose response (AID 2214)
Procathepsin L, sequence (P07711 whole entry): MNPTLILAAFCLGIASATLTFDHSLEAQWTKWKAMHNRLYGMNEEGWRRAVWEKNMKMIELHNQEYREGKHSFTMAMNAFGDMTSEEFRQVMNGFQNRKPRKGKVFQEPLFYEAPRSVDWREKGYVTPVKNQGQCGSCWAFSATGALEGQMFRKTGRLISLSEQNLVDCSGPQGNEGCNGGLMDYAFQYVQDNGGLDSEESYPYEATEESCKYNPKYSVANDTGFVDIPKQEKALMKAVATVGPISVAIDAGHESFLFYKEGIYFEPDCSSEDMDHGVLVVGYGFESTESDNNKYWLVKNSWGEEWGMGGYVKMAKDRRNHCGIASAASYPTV

[2] = target: Eukaryotic translation initiation factor 4H (Homo sapiens, UniProt Q15056); experiment: eIF4H binding inhibition – biochemical, uHTS, fluorescence polarization, translation initiation inhibitor project, primary screen (AID 2012)
[3] = target: Polyadenylate-binding protein 1 (Homo sapiens, UniProt P11940); experiment: blockers of PABP interaction with poly(A) – biochemical, fluorescence polarization, […] (AID 2014)
Polyadenylate-binding protein 1, sequence (P11940 whole entry): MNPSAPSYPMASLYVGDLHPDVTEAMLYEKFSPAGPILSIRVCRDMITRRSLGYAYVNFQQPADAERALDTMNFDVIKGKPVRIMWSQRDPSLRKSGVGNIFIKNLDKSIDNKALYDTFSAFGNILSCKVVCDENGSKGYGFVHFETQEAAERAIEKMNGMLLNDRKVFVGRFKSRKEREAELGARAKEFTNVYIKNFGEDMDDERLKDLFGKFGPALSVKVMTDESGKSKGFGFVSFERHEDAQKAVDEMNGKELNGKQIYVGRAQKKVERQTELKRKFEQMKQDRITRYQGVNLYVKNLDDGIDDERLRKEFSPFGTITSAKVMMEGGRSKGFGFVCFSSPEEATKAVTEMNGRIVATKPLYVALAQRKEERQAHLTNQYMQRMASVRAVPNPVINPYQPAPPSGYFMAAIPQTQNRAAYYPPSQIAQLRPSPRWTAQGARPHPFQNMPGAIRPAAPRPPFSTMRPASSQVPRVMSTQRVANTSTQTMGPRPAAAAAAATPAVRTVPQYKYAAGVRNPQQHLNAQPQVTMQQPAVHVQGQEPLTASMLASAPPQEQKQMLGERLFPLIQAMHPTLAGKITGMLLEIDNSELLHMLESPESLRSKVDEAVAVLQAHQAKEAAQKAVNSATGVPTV

[4] = target: T3, DNA dC->dU-editing enzyme APOBEC-3A (Homo sapiens, UniProt P31941); experiment: Dose Response confirmation of small molecule APOBEC3A DNA Deaminase Inhibitors via a fluorescence-based single-stranded DNA deaminase assay. [Related pubchem assays (depositor defined):AID493011, AID493024]; assay type: functional
T3 sequence (P31941 whole entry): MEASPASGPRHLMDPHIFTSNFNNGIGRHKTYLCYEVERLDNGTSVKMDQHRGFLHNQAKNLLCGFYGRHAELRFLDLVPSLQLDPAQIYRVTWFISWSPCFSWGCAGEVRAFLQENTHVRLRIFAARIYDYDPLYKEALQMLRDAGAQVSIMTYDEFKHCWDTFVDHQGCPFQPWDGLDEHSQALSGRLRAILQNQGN

[5] = target: T4, Ubiquitin-conjugating enzyme E2 N (Homo sapiens, UniProt P61088); assay type: functional;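 also: Dose-response confirmation in a TR-FRET assay detecting UBC13-driven polyubiquitin chain formation, inhibition measured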
T4 sequence (P61088 whole entry): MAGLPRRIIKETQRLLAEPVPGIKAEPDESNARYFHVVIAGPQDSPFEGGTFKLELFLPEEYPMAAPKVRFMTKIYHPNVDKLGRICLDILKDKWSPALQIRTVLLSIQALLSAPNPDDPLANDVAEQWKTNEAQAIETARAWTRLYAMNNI

[6] = target: T5, DNA dC->dU-editing enzyme APOBEC-3G (Homo sapiens, UniProt Q9HC16); assay type: functional
T5 sequence (Q9HC16 whole entry): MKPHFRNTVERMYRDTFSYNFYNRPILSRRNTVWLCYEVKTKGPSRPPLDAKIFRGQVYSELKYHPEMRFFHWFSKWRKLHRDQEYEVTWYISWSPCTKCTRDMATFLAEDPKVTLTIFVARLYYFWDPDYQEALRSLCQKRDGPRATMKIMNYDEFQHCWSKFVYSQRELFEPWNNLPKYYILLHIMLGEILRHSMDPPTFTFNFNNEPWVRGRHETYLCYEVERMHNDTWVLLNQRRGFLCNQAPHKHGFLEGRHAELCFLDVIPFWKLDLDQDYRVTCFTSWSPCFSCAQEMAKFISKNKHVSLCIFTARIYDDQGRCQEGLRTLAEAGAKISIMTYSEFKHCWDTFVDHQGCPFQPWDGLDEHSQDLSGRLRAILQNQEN

CAAX prenyl protease 2 = CAAX prenyl protease 2 (Saccharomyces cerevisiae S288c, UniProt Q03530); assay type: biochemical
CAAX prenyl protease 2, sequence (Q03530 whole entry): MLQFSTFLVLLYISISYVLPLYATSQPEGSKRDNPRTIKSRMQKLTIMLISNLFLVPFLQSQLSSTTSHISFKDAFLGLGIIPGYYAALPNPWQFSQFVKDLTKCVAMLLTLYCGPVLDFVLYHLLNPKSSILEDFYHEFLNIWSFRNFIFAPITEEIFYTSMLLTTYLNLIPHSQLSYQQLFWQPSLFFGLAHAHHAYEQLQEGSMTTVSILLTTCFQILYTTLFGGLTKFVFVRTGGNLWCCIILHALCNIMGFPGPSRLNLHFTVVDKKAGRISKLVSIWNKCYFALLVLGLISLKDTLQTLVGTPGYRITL

[7] = HPDE-C7 pancreatic duct cell viability loss – fluorescence, HTS (AID 430); assay type: functional, cell-based; conditions: Homo sapiens
[8] = viability loss of HPDE-C7K cells – cell-based, fluorescence, HTS, primary screen (AID 431); assay type: functional; conditions: Homo sapiens
[9] = A High Throughput Confirmatory Assay used to Identify Novel Compounds that Inhibit Mycobacterium Tuberculosis in the absence of Glycerol.; assay type: functional
[10] = microbe, parasite or virus in culture; assay type: functional; conditions: Mycobacterium tuberculosis
HEK293 = experiment: Fluorescence-based counterscreen for potentiators or agonists of NPY-Y2: cell-based high-throughput dose response assay to identify inhibitors of cyclic nucleotide gated ion channel (CNGC) activity. In this assay, the parental HEK293 cell line transfected with a cyclic-nucleotide gated ion channel (CNGC)-based cAMP sensor is used to measure inhibition of isoproterenol-induced CNGC activity by test compound.; assay type: functional; conditions: Homo sapiens;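 also: stimulus is 1 µM isoproterenol at EC100 plus PDE inhibitor Ro 20-1724 at 25 µM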
[11] = target: T6, Neuropeptide Y receptor type 2 (Homo sapiens, UniProt P49146); experiment: Fluorescence-based cell-based high-throughput dose response assay for agonists of NPY-Y2. [Related pubchem assays: 1703 (Screening assay (CNGC inhibitors).), 1359 (Screening assay (NPY-Y2 potentiators or agonists).), 1304 (Screening assay (NPY-Y1 potentiators or agonists).), 1710 (Screening assay (NPY-Y2 agonists).), 1791 (Summary AID.)]; assay type: functional
T6 sequence (P49146 whole entry): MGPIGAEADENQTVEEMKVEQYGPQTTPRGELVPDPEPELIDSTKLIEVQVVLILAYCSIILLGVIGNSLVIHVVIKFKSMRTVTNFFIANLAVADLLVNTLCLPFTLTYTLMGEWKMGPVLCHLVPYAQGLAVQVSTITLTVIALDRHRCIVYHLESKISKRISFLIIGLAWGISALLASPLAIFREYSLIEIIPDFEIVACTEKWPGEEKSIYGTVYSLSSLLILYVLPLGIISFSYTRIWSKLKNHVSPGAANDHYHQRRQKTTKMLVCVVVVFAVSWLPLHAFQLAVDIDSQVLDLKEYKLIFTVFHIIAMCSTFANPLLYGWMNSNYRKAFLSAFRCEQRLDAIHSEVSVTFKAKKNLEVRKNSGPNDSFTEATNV

[12] = target: T7, Neuropeptide Y receptor type 1 (Homo sapiens, UniProt P25929); experiment: Fluorescence-based counterscreen for agonists of NPY-Y2: cell-based high-throughput dose response assay for agonists of NPY-Y1.; assay type: functional
T7 sequence (P25929 whole entry): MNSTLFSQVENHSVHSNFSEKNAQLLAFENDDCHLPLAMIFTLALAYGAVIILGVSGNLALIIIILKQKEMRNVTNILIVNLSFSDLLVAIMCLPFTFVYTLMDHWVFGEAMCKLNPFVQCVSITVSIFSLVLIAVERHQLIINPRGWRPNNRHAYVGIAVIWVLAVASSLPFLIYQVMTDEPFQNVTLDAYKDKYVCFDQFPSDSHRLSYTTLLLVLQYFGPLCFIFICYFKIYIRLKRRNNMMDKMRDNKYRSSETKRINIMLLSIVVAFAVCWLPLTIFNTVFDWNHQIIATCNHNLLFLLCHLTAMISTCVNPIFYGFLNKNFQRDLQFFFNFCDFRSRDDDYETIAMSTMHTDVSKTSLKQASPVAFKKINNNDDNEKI

[13] = viability of uninfected HEp-2 cells – cell-based, HTS, cytotoxicity control for RSV inhibitor project, dose response (AID 2410); assay type: functional; conditions: human respiratory syncytial virus
[14] = target: Peroxisome proliferator-activated receptor gamma/Nuclear receptor coactivator 1 (Homo sapiens, UniProt P37231); experiment: (§1) TR-FRET dose response biochemical High Throughput Screening assay for agonists of the steroid receptor coactivator 1 (SRC-1) recruitment by the peroxisome proliferator-activated receptor gamma (PPAR gamma): non-selective agonists. [Related pubchem assays (depositor defined):AID1300, AID1808, AID504735, AID631]; assay type: protein assay
[15] = target: Peroxisome proliferator-activated receptor gamma/Nuclear receptor coactivator 3 (Homo sapiens, UniProt P37231); experiment: as §1, with “3 (SRC-3)” for “1 (SRC-1)”, “assays: 1301 (Confirmation screen.), 1048 (Primary screen.)]” for “assays (depositor defined):AID1300, AID1808, AID504735, AID631]”; assay type: functional
Peroxisome proliferator-activated receptor gamma/Nuclear receptor coactivator 3, sequence (P37231 whole entry): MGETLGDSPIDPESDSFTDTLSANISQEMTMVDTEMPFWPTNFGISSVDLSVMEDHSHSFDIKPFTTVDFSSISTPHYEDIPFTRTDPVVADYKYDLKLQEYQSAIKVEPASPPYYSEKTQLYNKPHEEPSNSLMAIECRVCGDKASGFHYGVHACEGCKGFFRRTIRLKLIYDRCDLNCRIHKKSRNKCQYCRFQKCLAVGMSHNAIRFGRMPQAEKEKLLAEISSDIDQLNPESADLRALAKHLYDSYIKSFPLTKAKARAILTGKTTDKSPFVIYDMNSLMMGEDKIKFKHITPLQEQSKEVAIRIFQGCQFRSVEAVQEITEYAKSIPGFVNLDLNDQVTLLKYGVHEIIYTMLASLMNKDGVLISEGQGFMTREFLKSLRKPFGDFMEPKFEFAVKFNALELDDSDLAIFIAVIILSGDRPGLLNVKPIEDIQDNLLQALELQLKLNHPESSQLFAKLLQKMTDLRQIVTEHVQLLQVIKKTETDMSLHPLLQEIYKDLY
Peroxisome proliferator-activated receptor gamma/Nuclear receptor coactivator 3, sequence (Q9Y6Q9 whole entry, further chain): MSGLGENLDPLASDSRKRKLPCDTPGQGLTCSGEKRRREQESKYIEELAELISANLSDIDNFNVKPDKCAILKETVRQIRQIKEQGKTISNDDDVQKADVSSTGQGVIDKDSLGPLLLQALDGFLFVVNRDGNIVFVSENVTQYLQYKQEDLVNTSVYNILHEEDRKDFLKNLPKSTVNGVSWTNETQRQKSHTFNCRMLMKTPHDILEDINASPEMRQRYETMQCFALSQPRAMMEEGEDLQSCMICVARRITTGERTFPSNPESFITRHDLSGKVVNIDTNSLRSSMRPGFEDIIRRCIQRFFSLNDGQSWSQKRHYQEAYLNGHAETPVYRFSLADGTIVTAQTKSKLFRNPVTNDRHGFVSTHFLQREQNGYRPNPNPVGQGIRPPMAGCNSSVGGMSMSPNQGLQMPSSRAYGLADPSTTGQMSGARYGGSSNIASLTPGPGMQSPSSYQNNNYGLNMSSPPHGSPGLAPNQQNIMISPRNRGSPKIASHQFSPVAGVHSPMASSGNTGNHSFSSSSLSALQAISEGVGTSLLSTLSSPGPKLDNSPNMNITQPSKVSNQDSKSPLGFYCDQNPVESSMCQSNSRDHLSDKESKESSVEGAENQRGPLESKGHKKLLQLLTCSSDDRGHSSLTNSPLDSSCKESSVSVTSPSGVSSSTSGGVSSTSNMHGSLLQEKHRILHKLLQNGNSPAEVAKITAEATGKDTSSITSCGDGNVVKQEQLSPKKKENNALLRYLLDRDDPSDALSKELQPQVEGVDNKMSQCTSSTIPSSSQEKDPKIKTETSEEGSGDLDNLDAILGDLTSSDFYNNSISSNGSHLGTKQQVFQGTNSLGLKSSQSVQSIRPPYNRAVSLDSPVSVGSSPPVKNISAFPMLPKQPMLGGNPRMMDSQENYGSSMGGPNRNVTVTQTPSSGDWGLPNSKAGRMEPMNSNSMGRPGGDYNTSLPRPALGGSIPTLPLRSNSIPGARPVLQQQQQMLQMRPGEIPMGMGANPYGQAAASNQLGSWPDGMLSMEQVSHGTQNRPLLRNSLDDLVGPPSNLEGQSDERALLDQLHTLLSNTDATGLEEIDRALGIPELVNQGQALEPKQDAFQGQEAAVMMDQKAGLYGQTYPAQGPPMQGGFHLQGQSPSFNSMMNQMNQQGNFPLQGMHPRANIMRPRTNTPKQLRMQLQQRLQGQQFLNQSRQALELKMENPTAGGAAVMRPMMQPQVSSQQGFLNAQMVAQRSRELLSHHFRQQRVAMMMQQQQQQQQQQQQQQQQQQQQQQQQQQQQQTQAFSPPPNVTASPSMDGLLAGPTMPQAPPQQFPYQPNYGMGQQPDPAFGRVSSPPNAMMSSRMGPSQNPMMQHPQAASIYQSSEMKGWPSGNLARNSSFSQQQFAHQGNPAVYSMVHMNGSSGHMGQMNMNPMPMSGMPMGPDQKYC

[16] = target: Peroxisome proliferator-activated receptor gamma/Nuclear receptor coactivator 2 (Homo sapiens, UniProt P37231); experiment: TR-FRET dose response biochemical High Throughput Screening assay for agonists of the steroid receptor coactivator 2 (SRC-2) recruitment by the peroxisome proliferator-activated receptor gamma (PPAR gamma): non-selective agonists. [Related pubchem assays: 1297, 1032 ]; assay type: functional
[17] = target: T3, DNA dC->dU-editing enzyme APOBEC-3A; experiment: A3A deaminase inhibition for selectivity – biochemical, dose response (AID 504722); assay type: functional
[18] = target: T5, DNA dC->dU-editing enzyme APOBEC-3G; experiment: Dose Response confirmation of small molecule APOBEC3G DNA Deaminase Inhibitors via a fluorescence-based single-stranded DNA deaminase assay. [Related pubchem assays (depositor defined):AID493012, AID493028]; assay type: functional
[19] = target: FAD-linked sulfhydryl oxidase ALR (Homo sapiens, UniProt P55789); experiment: ALR-catalysed DTT oxidation blockers – biochemical, H2O2 detection, luminescence, cherry-pick, dose response (AID 493248)
FAD-linked sulfhydryl oxidase ALR, sequence (P55789 whole entry): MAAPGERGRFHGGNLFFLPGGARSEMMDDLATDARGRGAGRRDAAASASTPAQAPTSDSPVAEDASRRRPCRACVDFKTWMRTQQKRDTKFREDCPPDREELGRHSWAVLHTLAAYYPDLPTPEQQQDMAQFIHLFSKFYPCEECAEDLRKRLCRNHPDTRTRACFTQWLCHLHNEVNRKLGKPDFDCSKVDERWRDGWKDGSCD

Bcl-2-related protein A1 [20] = target: T8, Bcl-2-related protein A1 (Mus musculus, UniProt Q07440); experiment: small-molecule antagonists of Bfl-1/BH3 interaction – biochemical, TR-FRET, mouse Bfl-1, confirmation (AID 621);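 also: TR-FRET binding of GST-Bfl-1 to FITC-labelled Bid peptide via terbium antibody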
T8 sequence (Q07440 whole entry): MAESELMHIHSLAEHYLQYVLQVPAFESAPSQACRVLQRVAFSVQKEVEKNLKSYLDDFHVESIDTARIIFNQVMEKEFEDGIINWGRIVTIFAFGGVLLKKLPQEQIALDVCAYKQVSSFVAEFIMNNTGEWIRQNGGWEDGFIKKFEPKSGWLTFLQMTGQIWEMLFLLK

Bcl-2-related protein A1 [21] = target: T8, Bcl-2-related protein A1; experiment: Bfl-1 binding inhibitors, SAR follow-up, biochemical, fluorescence polarization (AID 1070)
HeLa = experiment: ATP-based viability loss in HeLa cells – cell-based, CellTiter-Glo luminescence, cherry-pick samples, cytotoxicity control for MITF activator project, dose response (AID 540259); assay type: functional; conditions: Homo sapiens
cells [22] = assay type: functional, cell-based
cells [23] = assay type: functional, cell-based; remark: listed apart in the source

COc1ccc(S(=O)(=O)NCc2ccco2)cc1-c1nnc2c3ccccc3c(C)nn12
IC50 (cells [1]): 11.2 µM (active)

Cc1cccc(NC(=O)CSc2nc(O)c(C#N)c(-c3ccccc3)n2)c1C
IC50 (Leucine aminopeptidase): 5.37 µM (active)
IC50 (Aspartyl aminopeptidase): > 73.5 µM (not active)
IC50 (Procathepsin L): > 59.6 µM (not active)

CN(Cc1cccc(Cl)c1)C(=O)C1CSC2(C)CCC(=O)N12 (configuration not stated)
IC50 [2]: > 100 µM (inactive)
IC50 [3]: 29.4 µM (active)

Cc1ccc2c(c1)C1C[N+](C)(CC(=O)c3ccc(Cl)cc3Cl)CCC1N2C(=O)c1ccc(F)cc1 (configuration not stated)
IC50 [4]: 2.65 µM (active)
IC50 [5]: > 20 µM (inactive)
IC50 [6]: 2.88 µM (active)

COc1cc2ccccc2cc1C(=O)N(CCN(C)C)c1nc2ccc(C)cc2s1
AC50 (CAAX prenyl protease 2): 11.3 µM (active)

CCc1c(C)nc(N)nc1OCC(F)(F)C(F)F
EC50 [7]: > 20 µM (not active)
EC50 [8]: > 20 µM (not active)

CCCCCNc1nc(N2CCCC2)c2c(c1C#N)CCN(C)C2
IC50 [9]: > 100 µM (active)
CC50 [10]: > 40 µM (active)

CCc1cc[n+](/C(C([S-])=Nc2cccc(C)c2)=C(/O)c2ccc(C)c([N+](=O)[O-])c2)cc1
EC50 (HEK293): > 35.4 µM (not active)
EC50 [11]: > 35.4 µM (not active)
EC50 [12]: > 35.4 µM (not active)

Nc1c(Cl)cc(C2=NCCn3nc4cc(C(F)(F)F)ccc4c32)cc1Cl
AC50 (CAAX prenyl protease 2): 5.28 µM (active)

Cc1ccc(O)c(-c2cc(-c3ccccc3C)[nH]n2)c1
EC50 [7]: 11 µM (active)
EC50 [8]: 8.16 µM (active)

Cc1sc2ncnc(N3CCC(C(=O)N(CC(C)C)c4nc5ccccc5s4)CC3)c2c1C
IC50 [9]: > 100 µM (active)
CC50 [10]: > 40 µM (active)

Cc1cc(Nc2ccccc2Cl)nc(-c2ccccc2O)n1
CC50 [13]: 38.5 µM (active)
IC50 (cells [1]): 34.7 µM (active)

Cc1cccc(-n2c(S)nnc2-c2ccco2)c1
EC50 [14]: > 79.4 µM (inactive)
EC50 [15]: > 79.4 µM (not active)
EC50 [16]: > 79.4 µM (not active)
IC50 [17]: > 100 µM (inactive)
IC50 [18]: 6.36 µM (active)
AC50 [19]: 5.51 µM (active)

c1ccc(-n2nnc(-c3cccnc3)n2)cc1
IC50 (Bcl-2-related protein A1 [20]): > 100 µM (not active)
IC50 (Bcl-2-related protein A1 [21]): > 100 µM (not active)
AC50 (HeLa): 213 µM (active)

CCn1c(C)cc(/C=C2\NC(=O)N(CC(=O)Nc3ccc(F)cc3)C2=O)c1C
IC50 [4]: 1.24 µM (active)
IC50 [6]: 2.2 µM (active)

Sc1nnc(-c2ccco2)n1/N=C/c1cccs1
EC50 (cells [22]): > 350 µM (not active)
EC50 (cells [23]): > 350 µM (not active)
IC50 [17]: > 100 µM (inactive)
IC50 [18]: 3.28 µM (active)

Cc1ccc(-c2cccc(NC(=O)C3C4C=CC(C4)C3C(=O)O)c2)o1 (configuration not stated)
IC50 (Leucine aminopeptidase): 3.86 µM (active)
IC50 (Aspartyl aminopeptidase): > 73.5 µM (not active)
IC50 (Procathepsin L): > 59.6 µM (not active)
